Reference: patent US20240294478A1, “ANTI-CANCER COMPOUNDS AND METHODS OF USE” (YALE UNIVERSITY, priority 2021, published 2024)

Key:
HCT116 MLH1−/− cells = test: Short-term viability assay, HCT116 MLH1-/- cells +/- O6BG; format: cell-based, human; conditions: with or without 10 μM O6BG pre-treatment
Procedure: FIG. 1B: Short-term viability assay curves for KL-50 in DLD1 MSH6-deficient cells pre-treated with 0.01% DMSO control (CTR) or 10 μM O^6BG (+O^6BG) for 1 h prior to KL-50 addition. […] Short-term viability assay curves for (FIG. 1E) KL-50 in HCT116 MLH1−/−cells or (FIG. 1F) HCT116 cells complemented with chromosome 3 carrying wildtype MLH1 (+Chr3) pre-treated with 0.01% DMSO control or 10 μM O^6BG (+O^6BG) for 1 h prior to KL-50 addition. […] For these figures, points, mean; error bars, SD; n>3 technical replicates.
Short-term Cell Viability Assay. Cells were seeded in 96-well plates at 1000 or 2000 cells/well and allowed to adhere at 23° C. for 60 min and then incubated overnight at 37° C. Cells were treated with indicated concentrations of compounds in triplicate for 4-6 days prior to fixation with 3.7% paraformaldehyde and nuclear staining with 1 μg/mL Hoechst 33342 dye. Cells were imaged on a Cytation 3 imaging reader (BioTek) and quantified using CellProfiler software. For in vitro short-term growth delay experiments, IC50 values were determined from the nonlinear regression equation, [inhibitor] vs normalized response with variable slope.

MGMT−/MMR+ cells = test: IR alkaline comet assay, LN229 MGMT-/MMR+; format: cell-based, human; conditions: for IR-induced comet tail (ICL formation): 200 μM; for comet tailing in the absence of IR: TMZ 200 μM, KL-50 200 μM, MMC 0.1 or 50 μM
Procedure: The IR alkaline comet assay, adapted for ICL detection was performed to determine if ICLs were formed in MGMT-cells treated with KL-50. In this assay, cells were sequentially exposed to genotoxins and ionizing radiation, and then analyzed by single cell alkaline gel electrophoresis. Attenuation of the IR-induced comet tail is indicative of ICL formation.
IR Alkaline Comet Assay. This assay was performed utilizing the CometAssay™ Kit (Trevigen) according to the alkaline assay protocol, with the addition of slide irradiation post-lysis. Cells were trypsinized, washed with 1×PBS, added to melted Comet LMAgarose (Trevigen), and spread on Trevigen CometSlides at a density of 1000 cells per sample in 50 μL. Lysis solution (Trevigen) with 10% DMSO was added overnight at 4° C. […] Slides were then placed in alkaline buffer (200 mM NaOH, 1 mM EDTA) for 45 min, followed by electrophoresis in 850 mL alkaline buffer for 45 min at 4° C. Slides were washed and stained with SYBR gold (Invitrogen) per Trevigen assay protocol. Slides were imaged on a Cytation 3 imaging reader (BioTek), and comets were analyzed using CometScore 2.0 software (TriTek).

[1] = system: LN229 MGMT−/MMR− flank tumors; test: Murine flank tumor model, LN229 MGMT-/MMR-; format: in vivo; conditions: for tumor growth, MGMT−/MMR− flank tumors: P.O.; for median OS: LN229 MGMT−/MMR− flank tumor-bearing mice, 5 mg/kg
From the text: FIGS. 9A-91: KL-50 is safe and efficacious on both MGMT−/MMR+ and MGMT−/MMR-flank tumors over a wide range of treatment regimens and conditions. […] (FIG. 9C) Mean body weight of mice during LN229 flank tumor experiments. (FIG. 9D) Kaplan-Meier analysis of LN229 MGMT−/MMR− xenograft flank tumor-bearing mice to determine survival rate based on death, removal from study if mouse body weight loss exceeded 20% of initial body weight, or if tumor volume exceeded 2000 mm^3. […] (FIGS. 9H-91) Xenograft LN229 MGMT−/MMR+ and LN229 MGMT−/MSH6—flank tumors with a larger average starting tumor size of −400 mm^3 and −350 mm^3 respectively, treated with 3 weekly cycles of P.O administration of 10% cyclodextrin (n=4) or KL-50 (n=4, 3 cycles of 25 mg/kg on Monday, Wednesday, and Friday). The study period was limited by control groups which had to be euthanized for exceeding the ethical maximum allowed tumor size, thus ending the study. In all panels, points, mean; error bars, SEM; *, P<0.05; **, P<0.01; ***, P<0.001; ****, P<0.0001; ns, not significant.
Mouse Protocols for Flank Studies. A mouse tumor model was established by subcutaneously implanting human LN229 (MGMT−/MMR+) or LN229 (MGMT−/MMR−) cells. Cells were cultured as a monolayer in DMEM+10% FBS (Thermo Fisher) at 37° C. in a humidified atmosphere with 5% CO2 and passaged between one and three days prior to implantation and media was replaced every 2-3 days as needed to maintain cell viability. Cells were not allowed to exceed 80% confluency. On the day of implantation, cells were trypsinized, washed with complete media and pelleted by centrifugation at 1200 rpm for 5 minutes. The supernatant was decanted, and cells were washed three times with sterile PBS and pelleted by centrifugation. During the final centrifugation, viability was determined using trypan blue exclusion. Cells were resuspended in sterile PBS and diluted 1:1 in Matrigel (Coming, Cat #47743-716) for a final concentration of 5×10^6 cells/100 μL. 5 million cells were injected into the flank of female nude mice (Envigo, Hsd:Athymic Nude-Fox1nu, 3-4 weeks age, 15 g). […] Caliper measurements were obtained during the dosing period and at least two weeks following treatment. Mice were euthanized if body weight loss exceeded 20% or if tumor volume increased to greater than 2000 mm^3. Kaplan-Meier analysis was used to evaluate survival rate based on death or removal from study.

SMILES: NC(=O)c1ncn2c(=O)n(CCF)nnc12 [KL-50]
- cytotoxicity in HCT116 MLH1-deficient cells (HCT116 MLH1−/− cells): induced selective tumor cell killing specifically in the setting of O^6BG-induced MGMT suppression
- IR-induced comet tail (ICL formation) (MGMT−/MMR+ cells): reduced the % DNA in the tail to levels similar to those seen for 0.1 μM MMC
- comet tailing in the absence of IR (MGMT−/MMR+ cells): induced tailing
- tumor growth, MGMT−/MMR− flank tumors ([1]; 5 mg/kg MWF x 3 weeks): potently suppressed tumor growth
- body weight during flank tumor experiments ([1]; 5 mg/kg MWF x 3 weeks, compared to TMZ or control): no significant changes in body weight
- median OS ([1]; Kaplan-Meier): greater than 15 weeks
- increase in median OS for KL-50 vs TMZ ([1]; Kaplan-Meier, MGMT−/MMR− flank): greater than 5 week

SMILES: Cn1nnc2c(C(N)=O)ncn2c1=O [TMZ, 4-methyl-5-oxo-2,3,4,6,8-pentazabicyclo[4.3.0]nona-2,7,9-triene-9-carboxamide, reference compound]
- cytotoxicity in HCT116 MLH1-deficient cells (HCT116 MLH1−/− cells): inactive
- IR-induced comet tail (ICL formation) (MGMT−/MMR+ cells): did not reduce DNA migration following IR
- comet tailing in the absence of IR (MGMT−/MMR+ cells): induced tailing
- tumor growth, MGMT−/MMR− flank tumors ([1]; 5 mg/kg MWF x 3 weeks): no efficacy
- median OS ([1]; Kaplan-Meier): 10 weeks
